Results on 43 molecules are retold here after patent US20170333591A9, “ABSORBENT ARTICLE COMPRISING MALODOR REDUCTION COMPOSITIONS” (The Procter & Gamble Company, priority 2014, published 2017).

A short description of the data set: Log of liquid dish neat product liquid-air partition coefficient. It is filed as physicochemical. The settings on record: for Log of liquid dish neat product liquid-air partition coefficient (Comment Code): code letters K/L of the Comment Code.

Structures are written as SMILES.

With `CC1=CCC(C23CCCC(C)(C2)OC3)C1(C)C` (stereo not shown) [Material 570], the “Comment Code: Log of liquid dish neat product liquid-air partition coefficient” value (“Comment Code: Log” below) is listed as “K (Log of liquid dish neat product liquid-air partition coefficient greater than or equal to 7)” and the “Log of liquid dish neat product liquid-air partition coefficient (Comment Code)” value (“Log … (Comment Code)” for short) is listed as “K (Log of liquid dish neat product liquid-air partition coefficient greater than or equal to 7)”.

`CC1C(C)(C)C2=C(C(=O)CCC2)C1(C)C` (stereo not shown) [Material 572]: the “Log … (Comment Code)” value is “K (Log of liquid dish neat product liquid-air partition coefficient greater than or equal to 7)”.

In the case of `CC(=O)OC12CCCC(C)(CCC3C1CC3(C)C)C2` (stereo not shown) [Material 573], the “Comment Code: Log” value is “K (Log of liquid dish neat product liquid-air partition coefficient greater than or equal to 7)” and the “Log … (Comment Code)” value is “K (Log of liquid dish neat product liquid-air partition coefficient greater than or equal to 7)”.

For the molecule `CC12CCCC(O)(C1)C1CC(C)(C)C1CC2` (stereo not shown) [Material 574], the “Comment Code: Log” value is listed as “K (Log of liquid dish neat product liquid-air partition coefficient greater than or equal to 7)” and the “Log … (Comment Code)” value was “K (Log of liquid dish neat product liquid-air partition coefficient greater than or equal to 7)”.

As for `Cc1ccc(C(C)C)cc1O` [Material 575], the “Comment Code: Log” value is listed as “K (Log of liquid dish neat product liquid-air partition coefficient greater than or equal to 7)”.

With `C=C(C)C1CC=C(C)C(OC(C)=O)C1` (stereo not shown) [Material 577], the “Log … (Comment Code)” value is on record as “K (Log of liquid dish neat product liquid-air partition coefficient greater than or equal to 7)”.

With `CCOCCOCCO` [Material 579], the “Comment Code: Log” value was “K (Log of liquid dish neat product liquid-air partition coefficient greater than or equal to 7)”.

As to `CCCCCCCCCC(=O)O` [Material 582], the “Log … (Comment Code)” value is recorded as “K (Log of liquid dish neat product liquid-air partition coefficient greater than or equal to 7)”.

Regarding `COc1ccc(CC(C)C=O)cc1` (stereo not shown) [Material 586], the “Log … (Comment Code)” value is on record as “K (Log of liquid dish neat product liquid-air partition coefficient greater than or equal to 7)”.

With `CC12CCC(C(=O)C1=O)C2(C)C` (stereo not shown) [Material 587], the “Log … (Comment Code)” value is “K (Log of liquid dish neat product liquid-air partition coefficient greater than or equal to 7)”.

Turning to `CCCCOC(=O)C(C)OC(=O)CCC` (stereo not shown) [Material 595], the “Log … (Comment Code)” value is listed as “K (Log of liquid dish neat product liquid-air partition coefficient greater than or equal to 7)”.

On to `C=CCCCCCCCCC(=O)OCCCC` [Material 599], for which the “Log … (Comment Code)” value is listed as “K (Log of liquid dish neat product liquid-air partition coefficient greater than or equal to 7)”.

For `CC1=CCC(CCC(C)CO)C1(C)C` (stereo not shown) [Material 600], the “Log … (Comment Code)” value is “K (Log of liquid dish neat product liquid-air partition coefficient greater than or equal to 7)”.

In the case of `CC(C)(C)c1ccc(CCC=O)cc1` [Material 601], the “Log … (Comment Code)” value is given as “K (Log of liquid dish neat product liquid-air partition coefficient greater than or equal to 7)”.

Turning to `CC1=C(C/C=C(\C)C=O)C(C)(C)CCC1` [Material 602], the “Comment Code: Log” value is reported as “K (Log of liquid dish neat product liquid-air partition coefficient greater than or equal to 7)”.

For `CC(C)C(=O)OC1CC2CCC1(C)C2(C)C` (stereo not shown) [Material 603], the “Comment Code: Log” value is given as “K (Log of liquid dish neat product liquid-air partition coefficient greater than or equal to 7)” and the “Log … (Comment Code)” value is recorded as “K (Log of liquid dish neat product liquid-air partition coefficient greater than or equal to 7)”.

For `C=C1C2CCC(C)(OCC)C1CCC2(C)C` (stereo not shown) [Material 606], the “Log … (Comment Code)” value is “K (Log of liquid dish neat product liquid-air partition coefficient greater than or equal to 7)”.

Regarding `CCOCOC1CCCCCCCCCCC1` [Material 607], the “Log … (Comment Code)” value is “K (Log of liquid dish neat product liquid-air partition coefficient greater than or equal to 7)”.

As to `CC(C)=CCCC(C)=C1CC=C(C)CC1` [Material 608], the “Log … (Comment Code)” value is on record as “K (Log of liquid dish neat product liquid-air partition coefficient greater than or equal to 7)”.

On to `CC1=CC(=O)CC(C)C12CCC(=C(C)C)C2` (stereo not shown) [Material 610], for which the “Log … (Comment Code)” value is on record as “K (Log of liquid dish neat product liquid-air partition coefficient greater than or equal to 7)”.

In the case of `C=C(C)C1CCC(C)(OC(C)=O)CC1` (stereo not shown) [Material 611], the “Log … (Comment Code)” value is listed as “K (Log of liquid dish neat product liquid-air partition coefficient greater than or equal to 7)”.

For `C=C(C)C1CCC(C)(O)CC1` (stereo not shown) [Material 612], the “Log … (Comment Code)” value was “K (Log of liquid dish neat product liquid-air partition coefficient greater than or equal to 7)”.

For the molecule `C=CC(=C)CCC=C(C)CCC=C(C)C=O` [Material 613], the “Log … (Comment Code)” value is reported as “K (Log of liquid dish neat product liquid-air partition coefficient greater than or equal to 7)”.

Consider `C=C1C=CC(C(C)CCC=C(C)C)CC1` (stereo not shown) [Material 614], for which the “Log … (Comment Code)” value is reported as “K (Log of liquid dish neat product liquid-air partition coefficient greater than or equal to 7)”.

With `C=C(C)C1CCC2(C)CCCC(=C)C2C1` (stereo not shown) [Material 615], the “Log … (Comment Code)” value is listed as “K (Log of liquid dish neat product liquid-air partition coefficient greater than or equal to 7)”.

As to `C=C1C2CCC(C2)C1(C)CCC=C(C)CO` (stereo not shown) [Material 616], the “Comment Code: Log” value is “K (Log of liquid dish neat product liquid-air partition coefficient greater than or equal to 7)” and the “Log … (Comment Code)” value is recorded as “K (Log of liquid dish neat product liquid-air partition coefficient greater than or equal to 7)”.

On to `CC1=C2CCC3(C)OC3C2C(C)(C)CCC1` (stereo not shown) [Material 624], for which the “Comment Code: Log” value is recorded as “K (Log of liquid dish neat product liquid-air partition coefficient greater than or equal to 7)” and the “Log … (Comment Code)” value is “K (Log of liquid dish neat product liquid-air partition coefficient greater than or equal to 7)”.

Consider `COC(Cc1ccccc1)OC` [Material 627], for which the “Comment Code: Log” value was “K (Log of liquid dish neat product liquid-air partition coefficient greater than or equal to 7)” and the “Log … (Comment Code)” value is given as “K (Log of liquid dish neat product liquid-air partition coefficient greater than or equal to 7)”.

Consider `C=CC(=C)CCC=C(C)CCC=C(C)C` [Material 628], for which the “Log … (Comment Code)” value was “K (Log of liquid dish neat product liquid-air partition coefficient greater than or equal to 7)”.

On to `CC(=O)C=CC12OC1(C)CCCC2(C)C` (stereo not shown) [Material 636], for which the “Log … (Comment Code)” value is “K (Log of liquid dish neat product liquid-air partition coefficient greater than or equal to 7)”.

For `CC(C)(O)CCc1ccccc1` [Material 639], the “Log … (Comment Code)” value is “K (Log of liquid dish neat product liquid-air partition coefficient greater than or equal to 7)”.

Take `CC(=O)CCc1ccccc1` [Material 640]: the “Comment Code: Log” value was “K (Log of liquid dish neat product liquid-air partition coefficient greater than or equal to 7)”.

Regarding `CC(C)CC(=O)OCc1ccccc1` [Material 645], the “Comment Code: Log” value is listed as “K (Log of liquid dish neat product liquid-air partition coefficient greater than or equal to 7)”.

`CC(C)C(=O)OCc1ccccc1` [Material 647]: the “Comment Code: Log” value is given as “K (Log of liquid dish neat product liquid-air partition coefficient greater than or equal to 7)”.

Consider `CC(C)(O)Cc1ccccc1` [Material 649], for which the “Log … (Comment Code)” value is “K (Log of liquid dish neat product liquid-air partition coefficient greater than or equal to 7)”.

Consider `CC(C)C1OCCC2(CC3CCC2(C)C3(C)C)O1` (stereo not shown) [Material 659], for which the “Comment Code: Log” value is recorded as “K (Log of liquid dish neat product liquid-air partition coefficient greater than or equal to 7)” and the “Log … (Comment Code)” value is reported as “K (Log of liquid dish neat product liquid-air partition coefficient greater than or equal to 7)”.

With `CC(C)=CCCC1=CCC(C#N)CC1` (stereo not shown) [Material 660], the “Log … (Comment Code)” value was “K (Log of liquid dish neat product liquid-air partition coefficient greater than or equal to 7)”.

Consider `COc1ccc(COC(C)=O)cc1` [Material 664], for which the “Comment Code: Log” value is “K (Log of liquid dish neat product liquid-air partition coefficient greater than or equal to 7)”.

In the case of `COc1ccc(COC=O)cc1` [Material 665], the “Comment Code: Log” value is recorded as “K (Log of liquid dish neat product liquid-air partition coefficient greater than or equal to 7)”.

As to `CCCCCOC(=O)C=Cc1ccccc1` [Material 671], the “Log … (Comment Code)” value is given as “K (Log of liquid dish neat product liquid-air partition coefficient greater than or equal to 7)”.

Consider `CCCCCOC(=O)c1ccccc1` [Material 672], for which the “Comment Code: Log” value is on record as “K (Log of liquid dish neat product liquid-air partition coefficient greater than or equal to 7)”.

Regarding `C[C@@H]1CC[C@H]2C(C)(C)[C@H]3C[C@@]12CC1OC(C)(C)OC13C` (stereo partly shown) [Material 674], the “Comment Code: Log” value is listed as “K (Log of liquid dish neat product liquid-air partition coefficient greater than or equal to 7)” and the “Log … (Comment Code)” value is “K (Log of liquid dish neat product liquid-air partition coefficient greater than or equal to 7)”.

For the molecule `CC1(O)CCC2=C(CCCC2(C)C)C1` (stereo not shown) [Material 675], the “Log … (Comment Code)” value is recorded as “K (Log of liquid dish neat product liquid-air partition coefficient greater than or equal to 7)”.
